Results on 3 compounds are retold here after patent publication US20130310379A1, “MODULATORS OF METHYL MODIFYING ENZYMES, COMPOSITIONS AND USES THEREOF” (CONSTELLATION PHARMACEUTICALS, priority 2010, published 2013).

One assay concerns the target EZH2 (Homo sapiens, UniProt Q15910). In words: EZH2 assay: rPRC2 with biotinylated oligonucleosome substrates and 3H SAM, FlashPlate scintillation counting, IC50. It counts as biochemical. As to conditions: rPRC2, biotinylated oligonucleosome substrates, 3H SAM; read-out: EZH2 IC50. A digest of the protocol: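 rPRC2 (2 nM EZH2) pre-incubated 20 min with compound (80 to 0.16 uM, ten 2-fold steps), then 60 min reaction with 0.2 uM 3H SAM, 0.2 uM biotinylated oligonucleosomes, 3.6 uM H3K27me3 peptide in Tris pH 8.5. SAH/EDTA quench; 4-parameter IC50 fit.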

A further assay concerns the target Y641N EZH2 (Homo sapiens, UniProt Q15910, Y641N). In words: Y641N EZH2 assay: performed as the EZH2 assay, using reconstituted H3K27Me2 oligonucleosomes as substrate. It counts as biochemical. The protocol: Assays were carried out by mixing rPRC2 together with biotinylated oligonucleosome substrates in the presence of the radio-labeled enzyme co-factor, S-adenosyl-L-methionine (^3H SAM) (Perkin Elmer) and monitoring the enzymatically mediated transfer of tritiated methyl groups from ^3H SAM to histone lysine residues. The amount of resulting tritated methylhistone product was measured by first capturing the biotinylated oligonuclesomes in streptavidin (SAV) coated FlashPlates (Perkin Elmer), followed by a wash step to remove un-reacted ^3H SAM, and then counting on a TopCount NXT 384 well plate scintillation counter (Perkin Elmer). The final assay conditions for EZH2 were as follows: 50 mM Tris Buffer pH 8.5, 1 mM DTT, 69 uM Brij-35 detergent, 5.0 mM MgCl2, 0.1 mg/mL BSA, 0.2 uM ^3H SAM, 0.2 uM biotinylated oligonucleosomes, 3.6 uM H3K27me3 peptide and 2 nM EZH2.
Compound IC50 measurements were obtained as follows: Compounds were first dissolved in 100% DMSO as 10 mM stock solutions. […] A 12.5 uL volume of the HMT enzyme, H3K27me3 peptide and oligonucleosome substrate in assay buffer was added to each well of the assay plate using a Multidrop Combi (ThermoFisher). Compounds were pre-incubated with the enzyme for 20 min, followed by initiation of the methyltransferase reaction by addition of 12.5 uL of 3H SAM in assay buffer (final volume=25 uL). The final concentrations of compounds ranged from a top default concentration of 80 uM down to 0.16 uM in ten 2-fold dilution steps. Reactions were carried out for 60 minutes and quenched with 20 uL per well of 1.96 mM SAH, 50 mM Tris PH 8.5, 200 mM EDTA. Stopped reactions were transferred to SAV coated Flashplates (Perkin Elmer), incubated for 120 min, washed with a plate washer, and then read on the TopCount NXT (1.0 min/well) to measure the amount of methylhistone product formed during the reaction. The amount of methylhistone product was compared with the amount of product formed in the 0% and 100% inhibition control wells allowing the calculation of % Inhibition in the presence of the individual compounds at various concentrations. IC50's were computed using a 4 parameter fit non-linear curve fitting software package (XLFIT, part of the database package, ActivityBase (IDBS)) where the four parameters were IC50, Hill slope, pre-transitional baseline (0% INH), and post-transitional baseline (100% INH); with the latter two parameters being fixed to zero and 100%, respectively, by default.

Where only a bound is given, the exact number is not on record here.

EZH2, sequence (Q15910 whole entry): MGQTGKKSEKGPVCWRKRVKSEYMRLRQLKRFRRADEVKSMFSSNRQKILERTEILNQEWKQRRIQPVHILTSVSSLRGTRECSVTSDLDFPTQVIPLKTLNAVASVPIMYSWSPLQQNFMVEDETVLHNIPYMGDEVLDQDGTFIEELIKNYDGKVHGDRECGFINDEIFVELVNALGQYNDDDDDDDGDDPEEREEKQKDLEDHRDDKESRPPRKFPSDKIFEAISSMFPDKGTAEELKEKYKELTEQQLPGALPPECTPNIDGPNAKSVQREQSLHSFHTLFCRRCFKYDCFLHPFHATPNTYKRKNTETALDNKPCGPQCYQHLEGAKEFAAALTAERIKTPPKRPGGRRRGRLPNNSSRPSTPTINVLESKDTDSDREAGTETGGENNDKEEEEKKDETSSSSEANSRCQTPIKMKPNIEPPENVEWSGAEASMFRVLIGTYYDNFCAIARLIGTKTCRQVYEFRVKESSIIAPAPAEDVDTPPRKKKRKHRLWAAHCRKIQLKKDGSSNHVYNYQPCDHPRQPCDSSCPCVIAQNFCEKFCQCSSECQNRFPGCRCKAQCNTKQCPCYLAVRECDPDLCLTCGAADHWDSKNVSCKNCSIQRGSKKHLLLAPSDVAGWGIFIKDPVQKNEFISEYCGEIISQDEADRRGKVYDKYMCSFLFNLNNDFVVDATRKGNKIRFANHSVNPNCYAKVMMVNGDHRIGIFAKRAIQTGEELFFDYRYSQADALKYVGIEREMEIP
EZH2, sequence (O75530 whole entry partner): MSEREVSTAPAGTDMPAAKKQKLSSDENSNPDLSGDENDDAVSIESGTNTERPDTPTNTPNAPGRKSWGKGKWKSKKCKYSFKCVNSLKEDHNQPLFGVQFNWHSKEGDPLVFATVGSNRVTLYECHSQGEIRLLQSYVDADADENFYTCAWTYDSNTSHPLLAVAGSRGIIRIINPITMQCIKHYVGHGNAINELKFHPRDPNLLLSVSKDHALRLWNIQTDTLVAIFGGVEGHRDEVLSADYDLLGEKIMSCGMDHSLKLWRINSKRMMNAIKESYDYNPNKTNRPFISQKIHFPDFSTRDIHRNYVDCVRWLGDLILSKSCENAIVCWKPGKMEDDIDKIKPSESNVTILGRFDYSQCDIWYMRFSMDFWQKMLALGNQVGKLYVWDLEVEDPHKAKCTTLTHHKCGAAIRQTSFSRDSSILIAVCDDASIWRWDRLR
EZH2, sequence (Q15022 whole entry partner): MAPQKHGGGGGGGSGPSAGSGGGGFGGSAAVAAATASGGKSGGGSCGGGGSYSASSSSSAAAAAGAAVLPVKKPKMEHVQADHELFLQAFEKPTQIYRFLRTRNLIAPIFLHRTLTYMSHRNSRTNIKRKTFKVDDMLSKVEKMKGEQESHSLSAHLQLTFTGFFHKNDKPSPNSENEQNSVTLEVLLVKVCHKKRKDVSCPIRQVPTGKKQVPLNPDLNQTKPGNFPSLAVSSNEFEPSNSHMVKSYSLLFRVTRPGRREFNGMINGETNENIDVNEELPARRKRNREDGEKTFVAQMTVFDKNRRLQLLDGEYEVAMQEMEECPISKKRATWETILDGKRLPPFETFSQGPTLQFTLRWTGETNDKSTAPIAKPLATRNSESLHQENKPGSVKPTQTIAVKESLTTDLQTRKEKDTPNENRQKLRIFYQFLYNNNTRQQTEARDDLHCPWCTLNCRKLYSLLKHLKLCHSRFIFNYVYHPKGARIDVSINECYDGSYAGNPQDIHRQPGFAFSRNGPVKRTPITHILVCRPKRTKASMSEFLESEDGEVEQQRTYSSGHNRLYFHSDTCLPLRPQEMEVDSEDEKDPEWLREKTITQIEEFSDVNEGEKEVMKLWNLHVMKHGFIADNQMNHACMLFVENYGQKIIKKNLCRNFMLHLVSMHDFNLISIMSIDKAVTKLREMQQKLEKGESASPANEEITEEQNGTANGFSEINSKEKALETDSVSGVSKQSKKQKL
Y641N EZH2, sequence (Q15910 whole entry Y641N): as the sequence (Q15910 whole entry) above, with Y641N counted along it
Y641N EZH2, sequence (O75530 whole entry partner): as the sequence (O75530 whole entry partner) above
Y641N EZH2, sequence (Q15022 whole entry partner): as the sequence (Q15022 whole entry partner) above

What is called IC50 is the concentration at which inhibition is half-maximal. In the case of `CC1(C)CC(NC(=O)c2ccc(Oc3cccc(N4CCOCC4)c3)c(Cl)c2)CC(C)(C)N1` [Compound I-590], the results for the IC50 on EZH2 and at Y641N EZH2 were 20 to 80 µM and above 80 µM, respectively.

On to `CC1(C)CC(OCc2ccc(Oc3cccc(-c4ccncn4)c3C#N)c(Cl)c2)CC(C)(C)N1` [Compound I-591, 2-(2-chloro-4-(((2,2,6,6-tetramethylpiperidin-4-yl)oxy)methyl)phenoxy)-6-(pyrimidin-4-yl)benzonitrile], for which the IC50 at EZH2 is below 5 µM; on Y641N EZH2 it was 20 to 80 µM.

For the compound `CC1(C)CC(/C=C/c2ccc(Oc3cccc(-c4ccncn4)c3C#N)c(Cl)c2)CC(C)(C)N1` [Compound I-592, (E)-2-(2-chloro-4-(2-(2,2,6,6-tetramethylpiperidin-4-yl)vinyl)phenoxy)-6-(pyrimidin-4-yl)benzonitrile], the IC50 was below 5 µM at EZH2 and 5 to 20 µM against Y641N EZH2.
